The target of test [1] is VEGFR2 (Homo sapiens (Human), UniProt P35968). The test is described as follows: Enzyme binding assay (KINOMEscan) VEGFR2.
Test [2] has as its target FGFR4 (Homo sapiens (Human), UniProt P22455). The test is described as follows: Enzyme binding assay (KINOMEscan) FGFR4.

Each structure is given as a SMILES string.

The term Kd denotes the free concentration of one partner at which half of the binding sites on the other are occupied at equilibrium, for simple one-to-one binding.

Chain of FGFR4 (P22455 22-802): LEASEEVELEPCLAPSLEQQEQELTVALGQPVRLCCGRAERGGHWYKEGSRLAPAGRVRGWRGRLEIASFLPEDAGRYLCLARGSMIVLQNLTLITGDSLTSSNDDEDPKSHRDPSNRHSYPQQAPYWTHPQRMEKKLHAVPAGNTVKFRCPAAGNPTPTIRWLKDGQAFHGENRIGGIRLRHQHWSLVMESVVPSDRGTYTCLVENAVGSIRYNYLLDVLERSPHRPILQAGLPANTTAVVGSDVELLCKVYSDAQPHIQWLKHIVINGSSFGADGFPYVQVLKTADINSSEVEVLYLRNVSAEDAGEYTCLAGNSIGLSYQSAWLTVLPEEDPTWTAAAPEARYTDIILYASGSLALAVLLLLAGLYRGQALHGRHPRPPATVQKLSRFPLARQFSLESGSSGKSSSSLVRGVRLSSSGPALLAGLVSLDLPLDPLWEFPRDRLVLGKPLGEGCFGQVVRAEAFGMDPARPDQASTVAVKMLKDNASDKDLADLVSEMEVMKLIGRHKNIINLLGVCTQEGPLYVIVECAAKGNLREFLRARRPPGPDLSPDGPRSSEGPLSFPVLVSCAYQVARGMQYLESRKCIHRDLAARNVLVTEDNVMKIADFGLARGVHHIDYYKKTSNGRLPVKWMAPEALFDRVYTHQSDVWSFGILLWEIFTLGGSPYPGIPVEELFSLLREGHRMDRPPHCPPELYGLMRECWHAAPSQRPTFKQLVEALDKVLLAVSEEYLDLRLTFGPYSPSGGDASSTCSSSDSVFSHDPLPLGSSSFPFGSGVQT
Chain of VEGFR2 (P35968 20-1356): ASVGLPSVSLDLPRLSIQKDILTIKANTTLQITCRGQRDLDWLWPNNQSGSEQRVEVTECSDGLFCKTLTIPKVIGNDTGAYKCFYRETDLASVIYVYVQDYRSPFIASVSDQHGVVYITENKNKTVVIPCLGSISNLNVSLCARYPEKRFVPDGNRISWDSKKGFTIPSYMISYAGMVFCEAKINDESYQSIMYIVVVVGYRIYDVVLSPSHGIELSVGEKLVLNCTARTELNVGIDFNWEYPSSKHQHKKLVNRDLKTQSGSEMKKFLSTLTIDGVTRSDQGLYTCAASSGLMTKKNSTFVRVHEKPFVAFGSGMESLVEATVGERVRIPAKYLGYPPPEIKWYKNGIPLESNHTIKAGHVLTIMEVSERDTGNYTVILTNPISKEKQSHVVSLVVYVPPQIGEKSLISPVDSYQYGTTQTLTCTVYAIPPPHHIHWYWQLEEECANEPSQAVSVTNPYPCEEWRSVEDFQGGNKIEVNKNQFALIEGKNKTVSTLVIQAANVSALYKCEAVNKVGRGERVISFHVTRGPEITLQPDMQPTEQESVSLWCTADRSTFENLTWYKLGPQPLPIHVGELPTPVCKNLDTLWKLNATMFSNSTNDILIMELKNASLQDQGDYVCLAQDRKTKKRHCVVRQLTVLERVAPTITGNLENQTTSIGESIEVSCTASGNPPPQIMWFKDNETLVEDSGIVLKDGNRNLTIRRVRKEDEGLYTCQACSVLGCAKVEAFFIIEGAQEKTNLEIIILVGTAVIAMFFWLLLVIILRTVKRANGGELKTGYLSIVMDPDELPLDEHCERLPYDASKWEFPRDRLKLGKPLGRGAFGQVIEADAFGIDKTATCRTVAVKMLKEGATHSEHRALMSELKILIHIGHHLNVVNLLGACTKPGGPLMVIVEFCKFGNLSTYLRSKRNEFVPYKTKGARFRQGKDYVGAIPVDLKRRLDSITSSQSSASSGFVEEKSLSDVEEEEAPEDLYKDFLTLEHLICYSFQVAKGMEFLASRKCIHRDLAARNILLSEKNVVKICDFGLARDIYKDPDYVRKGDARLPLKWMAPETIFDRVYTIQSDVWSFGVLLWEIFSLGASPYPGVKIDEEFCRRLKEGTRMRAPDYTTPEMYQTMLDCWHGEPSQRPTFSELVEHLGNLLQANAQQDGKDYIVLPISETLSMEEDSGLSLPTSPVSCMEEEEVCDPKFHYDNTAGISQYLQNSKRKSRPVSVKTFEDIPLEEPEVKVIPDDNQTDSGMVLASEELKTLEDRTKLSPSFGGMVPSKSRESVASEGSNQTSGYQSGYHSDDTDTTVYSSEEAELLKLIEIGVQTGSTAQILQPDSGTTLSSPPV

In the case of `COc1cc(OC)c2c(c1)N(c1ccc3ncc(-c4cn[nH]c4)nc3c1)CCN(C(C)C)C2` [Compound 2], the Kd was 741 nM in test [1] and 68 nM in test [2].

Take `COc1cc(O)c2c(c1)N(c1ccc3ncc(-c4cnn(C)c4)nc3c1)CCN(C(C)C)C2` [Compound 3]: the Kd in test [1] is over 3000 nM; in test [2] it was 1900 nM.

`COc1cc(O)cc2c1CN(C(C)C)CCN2c1ccc2ncc(-c3cnn(C)c3)nc2c1` [Compound 4]: the Kd in test [1] and in test [2] was over 3000 nM throughout.

In the case of `CCn1cc(-c2cnc3ccc(N4CCN(C)Cc5c(OC)cc(OC)cc54)cc3n2)cn1` [Compound 6], the Kd in test [1] and in test [2] was over 3000 nM each time.

`CCn1cc(-c2cnc3ccc(N4CCN(C(C)C)Cc5c(OC)cc(OC)cc54)cc3n2)cn1` [Compound 7]: the Kd in test [1] was found to be 1700 nM; in test [2], 230 nM.

Regarding `COc1cc(OC)c2c(c1)N(c1ccc3ncc(-c4cnn(C)c4)nc3c1)CCCN(C(C)C)C2` [Compound 9], the dissociation constant (Kd) amounted to 922 nM in test [1] and 355 nM in test [2].

The values are drawn from patent US9902714B2, “Quinoxaline derivatives useful as FGFR kinase modulators” (ASTEX THERAPEUTICS LTD, priority 2014, dated 2018).
